Assay results published in article PMC8745345, “Hydroxy Pentacyclic Triterpene Acid, Kaempferol, Inhibits the Human 5-Hydroxytryptamine Type 3A Receptor Activity” (International Journal of Molecular Sciences, 2022).
Changes are numbered by the printed parent chain.

Key:
[1] = target: T1, human 5-HT3A receptor W63A mutant (Homo sapiens, UniProt P46098, W85A); experiment: Two-electrode voltage clamp, I5-HT inhibition, W63A mutant; type: cell-based; settings: −80 mV
T1 sequence (P46098 24-478 W85A): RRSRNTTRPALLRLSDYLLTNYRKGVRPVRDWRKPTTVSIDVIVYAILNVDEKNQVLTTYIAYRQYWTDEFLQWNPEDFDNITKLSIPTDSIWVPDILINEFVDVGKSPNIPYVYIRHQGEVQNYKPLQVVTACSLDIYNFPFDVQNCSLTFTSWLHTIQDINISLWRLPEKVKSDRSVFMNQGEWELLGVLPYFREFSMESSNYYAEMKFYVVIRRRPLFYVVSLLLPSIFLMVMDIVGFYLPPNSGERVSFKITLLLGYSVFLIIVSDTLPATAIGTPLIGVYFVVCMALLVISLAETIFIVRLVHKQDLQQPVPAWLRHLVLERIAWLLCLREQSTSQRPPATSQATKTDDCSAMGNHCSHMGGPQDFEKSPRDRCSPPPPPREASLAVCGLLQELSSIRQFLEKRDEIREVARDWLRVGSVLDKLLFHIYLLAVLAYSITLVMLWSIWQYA
Procedure: Xenopus oocytes were used in this study as cells for expression of human 5-HT3A receptor. All female frogs used in this experiment were obtained from the Korean Xenopus Resource Center for Research (KXRCR000001). […] Xenopus oocytes were extracted during ice incubation state and isolated as single oocytes using collagenase II (2 mg/mL) in OR2 buffer (82.5 mM NaCl, 2 mM KCl, 1 mM MgCl2, 5 mM HEPES, pH 7.4). Isolated oocytes were incubated with ND96 incubation buffer (96 mM NaCl, 2 mM KCl, 1 mM MgCl2, 1.8 mM CaCl2, 5 mM HEPES, 2.5 mM sodium pyruvate, and 50 mg/mL gentamycin, pH 7.4) at 18 °C until the experiment was performed. Human 5-HT3A receptor mRNA was injected into oocytes using a nanoinjector (Drummond Scientific, Broomall, PA, USA) with a mineral-filled 10 μL microdispenser (VWR, Piscataway, NJ, USA).
To confirm the KAE activity on the human 5-HT3A receptor, a two-electrode voltage clamp (OC-725C; Warner Instruments, Hamden, CT, USA) with a Digitata 1550A was used. For the experiment, induced-inward current was converted to digital data with pClamp 10 software (Axon Instruments, Union City, CA, USA). All experiments were performed at room temperature using an oocyte clamp equipped with Digidata. The membrane holding potential was −80 mV.

[2] = target: T2, human 5-HT3A receptor I180A mutant (Homo sapiens, UniProt P46098, V202A); experiment: Two-electrode voltage clamp, I5-HT inhibition, I180A mutant; type: cell-based
T2 sequence (P46098 24-478 V202A): T1 sequence (P46098 24-478 W85A) with A62W, V179A
Procedure: Human 5-HT3A receptor cDNA was linearized using restriction enzyme XhoI. In vitro transcription was performed using an mMESSAGE mMACHINE T7 Transcription Kit (Thermo Fisher Scientific, Waltham, MA, USA). The final mRNA product was dissolved in 1X Diethyl Pyrocarbonate (RNase-free water) at a final concentration of 1 μg/μL and kept in a deep-freezer at −80 °C until used.
Xenopus oocytes were used in this study as cells for expression of human 5-HT3A receptor. All female frogs used in this experiment were obtained from the Korean Xenopus Resource Center for Research (KXRCR000001). Xenopus management followed the guideline of Chonnam National University institution guidelines (CNU IACUC-YB-2016-07, July 2016). Xenopus oocytes were extracted during ice incubation state and isolated as single oocytes using collagenase II (2 mg/mL) in OR2 buffer (82.5 mM NaCl, 2 mM KCl, 1 mM MgCl2, 5 mM HEPES, pH 7.4). Isolated oocytes were incubated with ND96 incubation buffer (96 mM NaCl, 2 mM KCl, 1 mM MgCl2, 1.8 mM CaCl2, 5 mM HEPES, 2.5 mM sodium pyruvate, and […], pH 7.4) at 18 °C until the experiment was performed. Human 5-HT3A receptor mRNA was injected into oocytes using a nanoinjector (Drummond Scientific, Broomall, PA, USA) with a mineral-filled 10 μL microdispenser (VWR, Piscataway, NJ, USA).
To confirm the KAE activity on the human 5-HT3A receptor, a two-electrode voltage clamp (OC-725C; Warner Instruments, Hamden, CT, USA) with a Digitata 1550A was used. For the experiment, induced-inward current was converted to digital data with pClamp 10 software (Axon Instruments, Union City, CA, USA). […]
The voltage relationship experiment for confirming the relationship between induce-inward current and voltage, the voltage was varied from −80 mV to +60 mV using a ramp protocol. […] All recording data were analyzed using Clampfit 9.0 (Molecular Devices, San Jose, CA, USA). […]
All presented experiments were performed at least three times for scientific verification. […] Induced-inward current data were analyzed with SigmaPlot 10.0 software (Systat Software, Inc., San Jose, CA, USA). […]

Q: For `O=c1c(O)c(-c2ccc(O)cc2)oc2cc(O)cc(O)c12` [KAE, kaempferol], which IC50 [1] is on record?
A: Its IC50 is 33.7 ± 5.7 µM.

Q: And the Vmax [1]?
A: The Vmax was 76.3 ± 10.7%.

Q: And the “n (Hill coefficient)” value [1]?
A: The value was 1.3 ± 0.5.

Q: What about the IC50 [2] of the same molecule?
A: Its IC50 is 45.5 ± 12.9 µM.

Q: What about the “n (Hill coefficient)” value ([2]; I180A, −80 mV) of the same molecule?
A: The value was 1.8 ± 0.6.

Q: And the Emax ([2]; I180A, −80 mV, read-out: Vmax)?
A: Its Emax is 89.5 ± 12.1%.
